Laboratory results reported in patent US8492515B2 (priority 2008, dated 2013).
pIC50: −log10 of the molar value. Values after ≈ are worked out from the molar mass of the structure shown. Square brackets hold non-standard residues; d marks the D form. Peptide text beside a SMILES is read from it. Ac6c = NC1(C(=O)O)CCCCC1

How the values were obtained:
E. coli HK179 = conditions: HK179, 16 h
E. coli D31 = conditions: full strength Muller-Hinton broth, 16 hours, 37° C.
[1] = tested on: Enterobacteriaceae strains
[2] = tested on: Klebsiella pneumoniae isolates

**Q.** With `CC(C)C[C@H](NC(=O)[C@H](Cc1ccc(O)cc1)NC(=O)[C@@H]1CCCN1C(=O)[C@H](CCCNC(=N)N)NC(=O)[C@@H]1CCCN1C(=O)[C@H](CCCCN)NC(=O)[C@H](CC(=O)O)NC(=O)[C@@H]1CCCN1C(=O)[C@H](CCCNC(=N)N)NC(=O)C1(N)CCCCC1)C(=O)N1CCC[C@H]1C(=O)N[C@@H](CCCNC(=N)N)C(=O)N1CCC[C@H]1C(=O)N[C@@H](CCCNC(=N)N)C(=O)N1CCC[C@H]1C(=O)N1CCC[C@H]1C(=O)N[C@@H](CCCNC(=N)N)C(=O)N1CCC[C@H]1C(=O)N[C@H](C(=O)N[C@@H](CCCNC(=N)N)C(=O)O)C(C)C` [Chex1-Arg20, Chex-Arg-Pro-Asp-Lys-Pro-Arg-Pro-Tyr-Leu-Pro-Arg-Pro-Arg--Pro-Pro-Arg-Pro-Val-Arg] (H-[Ac6c]RPDKPRPYLPRPRPPRPVR-OH; N-terminus and C-terminus assumed) as the compound, how does the “MIC against E. coli HK179” value (E. coli HK179) read?
**A.** The value was 2 µg/mL (≈ 0.808 µM).

**Q.** What about the “MIC against E. coli D31” value (E. coli D31) of the same compound?
**A.** The value was 8 µg/mL (≈ 3.23 µM).

**Q.** What about the pIC50 [1] of the same compound?
**A.** Its pIC50 is 6.30 to 7.00.

**Q.** What about the “activity relative to A3-APO in milligram/L terms” value ([1]; on average) of the same compound?
**A.** Its value is “twice as active”.

**Q.** And the “activity relative to A3-APO in molar terms” value ([1]; on average)?
**A.** Its value is 5 times.

**Q.** And the “potency in killing resistant bacteria relative to A3-APO” value ([1]; overall, Table 3)?
**A.** Its value is “twice as potent”.

**Q.** What about the “minimal bactericidal concentrations (MBC)” value [2] of the same compound?
**A.** Its value is 8 µg/mL (≈ 3.23 µM).
